Measured values: US20170184612A1, “USE OF LEUKOCYTES AND NOVEL BIOMARKERS IN THE DIAGNOSIS, CONFIRMATION, AND TREATMENT OF A NEUROLOGICAL DISORDER” (The Trustees of Columbia University in the City of New York, priority 2014, published 2017)

Key:
[1] = test system: peripheral blood mononuclear cells (PBMC), T cells; experiment: ELISpot assay, IL-5 release (SFC) after stimulation with a-synuclein epitope pools; assay type: cell-based, human
In short: (§1)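 PBMC from PD patients and age-matched controls were isolated by Ficoll gradient centrifugation and stimulated with pools of 122 candidate class I/II and phospho-S129 peptides, with responsive pools deconvoluted to single epitopes. After 22 h at 37 C, spot-forming cells were detected colorimetrically; ≥20 SFC per million cells counted as positive.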

[2] = test system: peripheral blood mononuclear cells (PBMC), T cells; experiment: ELISpot assay, gamma-interferon release (SFC) after stimulation with a-synuclein epitope pools; assay type: cell-based, human; conditions: for Pool +: IFNg, Pool Stimulated, number of donors with a positive response, Donors tested 1
In short: as §1

[3] = Patients Summary, PD patients, of donors tested (peptide)
[4] = Patients Summary, PD patients, single peptide
[5] = number of donors positive to the single peptide, second 'Pool Stimulated' section (from r296), 12 donors tested
[6] = peptide + / donors tested (peptide), second 'Pool Stimulated' section (from r296), 12 donors tested
[7] = single peptide, second 'Pool Stimulated' section (from r296), 12 donors tested
[8] = Patients Summary, Phospho pool peptides
[9] = Patients Summary, Phospho pool peptides, 10 donors tested
[10] = peptides of pool 'Poshpho', 8 donors tested
[11] = peptides of pool 'Poshpho', 8 donors tested, number of donors positive

Substance | IL-g Peptide + (donors positive to the peptide) [1, 3] | IL-g Response Frequency [1, 4] [%] | IL-g Total SFC [1, 4] [SFC] | Pool + [2] | IFNg Peptide + (donors positive to the peptide) [2, 3] | IFNg Avg SFC [2, 4] [SFC] | IFNg Response Frequency [2, 4] [%] | IFNg Total SFC [2, 4] [SFC] | IL-g Peptide + [1, 5] | IL-g Response Frequency [1, 6] [%] | IL-g Total SFC [1, 7] [SFC] | IFNg Peptide + [2, 5] | IFNg Response Frequency [2, 6] [%] | IFNg Total SFC [2, 7] [SFC] | also measured
3521.0031 (YVGSKTKEGV; listed as Homo sapiens) | 0 | 0 | 0 | 0 | 1 | 153 | 17 | 153 |  |  |  |  |  |  | 
3521.0032 (GAVVTGVTAV; listed as Homo sapiens) | 0 | 0 | 0 | 1 | 0 |  | 0 | 0 | 0 | 0 | 0 | 0 | 0 | 0 | 
3521.0033 (VLYVGSKTKK; listed as Homo sapiens) | 3 | 50 | 528 | 1 | 5 | 325 | 83 | 1626 |  |  |  |  |  |  | IL-g Avg SFC [1, 4]: 176 SFC
3521.0034 (GVLYVGSKTK; listed as Homo sapiens) | 2 | 33 | 284 | 1 | 5 | 452 | 83 | 2260 |  |  |  |  |  |  | IL-g Avg SFC [1, 4]: 142 SFC
3521.0035 (SIAAATGFVK; listed as Homo sapiens) | 1 | 25 | 1898 | 1 | 1 | 1946 | 25 | 1946 | 1 | 50 | 536 | 0 | 0 | 0 | IL-g Avg SFC [1, 4]: 1898 SFC; IL-g Avg SFC [1, 7]: 536 SFC
3521.0036 (AGSIAAATGF; listed as Homo sapiens) | 0 | 0 | 0 | 0 | 0 |  | 0 | 0 | 0 | 0 | 0 | 0 | 0 | 0 | 
3521.0037 (LYVGSKTKEG; listed as Homo sapiens) | 1 | 17 | 754 | 0 | 1 | 248 | 17 | 248 |  |  |  |  |  |  | IL-g Avg SFC [1, 4]: 754 SFC
3521.0038 (EMPSEEGYQD; listed as Homo sapiens) | 0 | 0 | 0 | 0 | 0 |  | 0 | 0 |  |  |  |  |  |  | IL-g Avg SFC [1, 8]: 620 SFC; IL-g Response Frequency [1, 8]: 10%; IL-g Total SFC [1, 8]: 620 SFC; IL-g Peptide + (donors positive to the peptide) [1, 9]: 1; IL-g Avg SFC [1, 10]: 33 SFC; IL-g Response Frequency [1, 10]: 13%; IL-g Total SFC [1, 10]: 33 SFC; IL-g Peptide + [1, 11]: 1; Pool + ([2]; pool 'Phospho' (phosphorylated peptides)): 1; IFNg Avg SFC [2, 8]: 502 SFC; IFNg Response Frequency [2, 8]: 30%; IFNg Total SFC [2, 8]: 1507 SFC; IFNg Peptide + (donors positive to the peptide) [2, 9]: 3; IFNg Avg SFC [2, 10]: 40 SFC; IFNg Response Frequency [2, 10]: 13%; IFNg Total SFC [2, 10]: 40 SFC; IFNg Peptide + [2, 11]: 1
3521.0041 (EGILEDMPVD; listed as Homo sapiens) | 0 | 0 | 0 | 0 | 0 |  | 0 | 0 | 0 | 0 | 0 | 0 | 0 |  | 
3521.0042 (AGKTKEGVLY; listed as Homo sapiens) | 0 | 0 | 0 | 0 | 1 | 31 | 13 | 31 | 0 | 0 | 0 | 0 | 0 | 0 | 
3521.0044 (GVTAVAQKTV; listed as Homo sapiens) | 0 | 0 | 0 | 0 | 0 |  | 0 | 0 | 0 | 0 | 0 | 0 | 0 | 0 | 
3521.0045 (KTKKGVVHGV; listed as Homo sapiens) | 0 | 0 | 0 |  | 1 | 133 | 17 | 133 |  |  |  |  |  |  | 
3521.0047 (IAAATGFVKK; listed as Homo sapiens) | 0 | 0 | 0 | 0 | 0 |  | 0 | 0 | 0 | 0 | 0 | 0 | 0 | 0 | 
3521.0048 (EQVTNVGGAV; listed as Homo sapiens) | 0 | 0 | 0 | 0 | 0 |  | 0 | 0 | 0 | 0 | 0 | 0 | 0 | 0 | 
